Key:
[1] = target: JNK3/SAPK1b, Active (activated JNK3α1) (Homo sapiens, UniProt P53779); experiment: Biochemical inhibition of JNK3 (HTRF enzyme inhibition assay); details: for IC50: Table 2, compounds of formula (II), read-out: JNK3 (nM) JNK activity (IC50); for EC50: Table 1, compounds of formula (I), mean of n repeats
Experimental: Enzyme inhibition studies were performed in 384-well polystyrene HTRF plates (Grainier) for 22 min at ambient temperature (˜22° C.) with 0.2 μM biotinylated FL-ATF2, 1 μM ATP, 0.75 nM activated JNK3α1 (with a control in the absence of kinase for determining the basal signal) in 10 μL volumes containing the final concentrations of the following: 50 mM Hepes, pH 7.0, 2.5 mM MgCl2, 0.1 mg/ml bovine serum albumin, 1 mM DL-dithiothreitol, 0.01% Triton X-100 (all from Sigma-Aldrich), and 5% DMSO (with or without compound). A 10 point titration of all compounds was carried out in 3-fold dilutions from 10 pM-2000 nM. After 22 min, the kinase reaction was terminated by addition of 10 μl of quenching solution [50 mM Hepes, pH 7.0, with 14 mM EDTA, 0.01% Triton X-100, 400 mM KF (all from Sigma-Aldrich)]. The detection reagents, streptavidin-x1APC (200 nM) and europium cryptate-labeled rabbit polyclonal anti-phospho-ATF2 (1 nM), were from Cis-Bio. The HTRF signal was detected using an Envision plate reader (Perkin Elmer) 1 h post-quenching. The data from multiple different experiments were averaged and presented as the mean±standard deviation. IC50 values were determined by fitting the data to the equation for a four-parameter logistic. p38 enzyme inhibition assays were performed identically to the JNK3 assays with the exception that the reaction time was […], 0.5 μM biotinylated FL-ATF2, ATP=11 μM, and p38 (Millipore)=3 nM.

JNK1α1/SAP1α, Active = JNK1α1/SAP1α, Active (Homo sapiens, UniProt P45983); experiment: Biochemical inhibition of JNK1; details: for IC50: Table 2, compounds of formula (II), read-out: JNK1 (nM) JNK activity (IC50); for EC50: Table 1, compounds of formula (I), mean of n repeats
JNK2α2/SAPK1c, active = JNK2α2/SAPK1c, active (Homo sapiens, UniProt P45984); experiment: Biochemical inhibition of JNK2; details: Table 1, compounds of formula (I); mean of n repeats
Experimental: A 10 point titration of all compounds was carried out in 3-fold dilutions from 10 pM-2000 nM. After 22 min, the kinase reaction was terminated by addition of 10 μl of quenching solution [50 mM Hepes, pH 7.0, with 14 mM EDTA, 0.01% Triton X-100, 400 mM KF (all from Sigma-Aldrich)]. The detection reagents, streptavidin-x1APC (200 nM) and europium cryptate-labeled rabbit polyclonal anti-phospho-ATF2 (1 nM), were from Cis-Bio. The HTRF signal was detected using an Envision plate reader (Perkin Elmer) 1 h post-quenching. The data from multiple different experiments were averaged and presented as the mean±standard deviation.

Chain of JNK1α1/SAP1α, Active (P45983 1-384 isoform P45983-2): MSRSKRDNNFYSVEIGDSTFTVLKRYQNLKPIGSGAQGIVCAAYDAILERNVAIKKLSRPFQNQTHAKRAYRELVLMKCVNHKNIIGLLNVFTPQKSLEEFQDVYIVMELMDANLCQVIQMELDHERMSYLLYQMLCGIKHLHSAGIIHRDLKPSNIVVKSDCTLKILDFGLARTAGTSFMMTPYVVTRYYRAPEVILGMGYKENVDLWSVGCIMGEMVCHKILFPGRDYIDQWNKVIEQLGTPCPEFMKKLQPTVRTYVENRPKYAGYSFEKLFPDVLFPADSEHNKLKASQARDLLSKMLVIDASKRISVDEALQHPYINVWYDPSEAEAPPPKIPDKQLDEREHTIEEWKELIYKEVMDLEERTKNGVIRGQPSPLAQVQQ
Chain of JNK2α2/SAPK1c, active (P45984 whole entry): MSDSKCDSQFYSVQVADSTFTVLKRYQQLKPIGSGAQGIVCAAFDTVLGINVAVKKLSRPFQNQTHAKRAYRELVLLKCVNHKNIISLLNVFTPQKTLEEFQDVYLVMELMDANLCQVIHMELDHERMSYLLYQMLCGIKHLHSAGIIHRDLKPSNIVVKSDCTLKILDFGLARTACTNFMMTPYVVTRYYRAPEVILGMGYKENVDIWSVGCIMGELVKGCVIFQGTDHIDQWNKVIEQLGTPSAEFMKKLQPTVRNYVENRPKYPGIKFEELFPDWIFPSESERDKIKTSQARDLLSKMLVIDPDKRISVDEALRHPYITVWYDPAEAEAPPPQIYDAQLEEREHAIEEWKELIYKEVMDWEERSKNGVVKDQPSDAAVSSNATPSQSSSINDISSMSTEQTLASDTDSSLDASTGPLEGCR
Chain of JNK3/SAPK1b, Active (activated JNK3α1) (P53779 1-422 isoform P53779-2): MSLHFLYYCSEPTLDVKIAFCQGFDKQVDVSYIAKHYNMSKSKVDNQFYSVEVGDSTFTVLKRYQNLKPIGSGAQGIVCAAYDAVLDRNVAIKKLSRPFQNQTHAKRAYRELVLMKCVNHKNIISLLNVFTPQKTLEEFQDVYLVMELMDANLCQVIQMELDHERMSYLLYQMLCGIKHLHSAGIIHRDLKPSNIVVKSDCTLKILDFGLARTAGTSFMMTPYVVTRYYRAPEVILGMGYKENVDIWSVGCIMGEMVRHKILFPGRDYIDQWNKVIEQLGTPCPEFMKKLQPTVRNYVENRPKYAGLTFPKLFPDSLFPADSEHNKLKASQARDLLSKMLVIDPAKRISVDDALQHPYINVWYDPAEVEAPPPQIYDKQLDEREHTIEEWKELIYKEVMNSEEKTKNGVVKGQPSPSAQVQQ

CC(C)NC(=O)N1CCC(Nc2ncc3ccc(=O)n(C4CCCC4)c3n2)CC1 [Example II-21, 4-(8-Cyclopentyl-7-oxo-7,8-dihydro-pyrido[2,3-d]pyrimidin-2-ylamino)-piperidine-1-carboxylic acid isopropylamide]
IC50 [1]: 200 to 1000 nM | IC50 (JNK1α1/SAP1α, Active): 200 to 1000 nM

c1cc2cnc(NC3CCNCC3)nc2nc1C1CC1 [Example II-40, 7-cyclopropyl-N-(piperidin-4-yl)pyrido[2,3-d]pyrimidin-2-amine]
IC50 (JNK1α1/SAP1α, Active): > 1000 nM

c1cc2cnc(NC3CCNCC3)nc2nc1N1CCCC1 [Example II-49, N-(piperidin-4-yl)-7-(pyrrolidin-1-yl)pyrido[2,3-d]pyrimidin-2-amine]
IC50 (JNK1α1/SAP1α, Active): > 1000 nM

Cn1nc(C2CC2)cc1NC(=O)c1cccc(-n2cc(NC(=O)Nc3ccccc3Cl)cn2)c1 [Example I-89, 3-(4-(3-(2-chlorophenyl)ureido)-1H-pyrazol-1-yl)-N-(3-cyclopropyl-1-methyl-1 H-pyrazol-5-yl)benzamide]
EC50 [1]: < 200 nM | EC50 (JNK2α2/SAPK1c, active): < 200 nM | EC50 (JNK1α1/SAP1α, Active): > 1000 nM

Cn1ccc(NC(=O)c2cccc(-n3cc(NC(=O)Nc4ccccc4Cl)cn3)c2)n1 [Example I-98, 3-(4-(3-(2-chlorophenyl)ureido)-1H-pyrazol-1-yl)-N-(1-methyl-1H-pyrazol-3-yl)benzamide]
EC50 [1]: < 200 nM | EC50 (JNK2α2/SAPK1c, active): < 200 nM | EC50 (JNK1α1/SAP1α, Active): 200 to 1000 nM

CC(C)n1c(=O)ccc2cnc(NC3CCN(Cc4ccccc4)CC3)nc21 [Example II-6, 2-(1-Benzyl-piperidin-4-ylamino)-8-isopropyl-8H-pyrido[2,3-d]pyrimidin-7-one]
IC50 [1]: > 1000 nM | IC50 (JNK1α1/SAP1α, Active): 200 to 1000 nM

O=C(Nc1cnn(-c2cccc(C(=O)Nc3cnn(CCN4CCCC4)c3)c2)c1)Nc1ccccc1Cl [Example I-101, 3-(4-(3-(2-chlorophenyl)ureido)-1H-pyrazol-1-yl)-N-(1-(2-(pyrrolidin-1-yl)ethyl)-1H-pyrazol-4-yl)benzamide]
EC50 [1]: < 200 nM | EC50 (JNK2α2/SAPK1c, active): < 200 nM | EC50 (JNK1α1/SAP1α, Active): > 1000 nM

Cc1nn(CCN2CCCC2)cc1NC(=O)c1cccc(-n2cc(NC(=O)Nc3ccccc3Cl)cn2)c1 [Example I-104, 3-(4-(3-(2-chlorophenyl)ureido)-1H-pyrazol-1-yl)-N-(3-methyl-1-(2-(pyrrolidin-1-yl)ethyl)-1H-pyrazol-4-yl)benzamide]
EC50 [1]: < 200 nM | EC50 (JNK2α2/SAPK1c, active): < 200 nM | EC50 (JNK1α1/SAP1α, Active): > 1000 nM

CC(C)n1cc(NC(=O)c2cccc(-n3cc(NC(=O)Nc4ccccc4Cl)cn3)c2)cn1 [Example I-86, 3-(4-(3-(2-chlorophenyl)ureido)-1H-pyrazol-1-yl)-N-(1-isopropyl-1H-pyrazol-4-yl)benzamide]
EC50 [1]: < 200 nM | EC50 (JNK2α2/SAPK1c, active): 200 to 1000 nM | EC50 (JNK1α1/SAP1α, Active): > 1000 nM

Cc1cccc(CNC(=O)c2cccc(-n3cc(NC(=O)Nc4ccccc4Cl)cn3)c2)n1 [Example I-11, 3-(4-(3-(2-chlorophenyl)ureido)-1H-pyrazol-1-yl)-N-((6-methylpyridin-2-yl)methyl)benzamide]
EC50 [1]: 200 to 1000 nM | EC50 (JNK2α2/SAPK1c, active): 200 to 1000 nM | EC50 (JNK1α1/SAP1α, Active): > 1000 nM

Cc1cc(NC(=O)c2cccc(-n3cc(NC(=O)Nc4ccccc4Cl)cn3)c2)cc(C)n1 [Example I-22, 3-(4-(3-(2-chlorophenyl)ureido)-1H-pyrazol-1-yl)-N-(2,6-dimethylpyridin-4-yl)benzamide]
EC50 [1]: < 200 nM | EC50 (JNK2α2/SAPK1c, active): 200 to 1000 nM | EC50 (JNK1α1/SAP1α, Active): > 1000 nM

O=c1ccc2cnc(N[C@H]3CC[C@H](O)CC3)nc2n1C1CCCC1 [Example II-20, Trans-8-Cyclopentyl-2-(4-hydroxy-cyclohexylamino)-8H-pyrido[2,3-d]pyrimidin-7-one]
IC50 [1]: < 200 nM | IC50 (JNK1α1/SAP1α, Active): < 200 nM

Cc1cc(NC(=O)c2cccc(-n3cc(NC(=O)Nc4ccccc4Cl)cn3)c2)ccn1 [Example I-10, 3-(4-(3-(2-chlorophenyl)ureido)-1H-pyrazol-1-yl)-N-(2-methylpyridin-4-yl)benzamide]
EC50 [1]: < 200 nM | EC50 (JNK2α2/SAPK1c, active): < 200 nM | EC50 (JNK1α1/SAP1α, Active): > 1000 nM

Cc1ccc(-c2ncn(-c3ccc(Nc4nccc(-c5cccc(N6CCOCC6)c5)n4)cc3)n2)cn1 [SR-3306, reference compound]
EC50 (JNK2α2/SAPK1c, active): 200 to 1000 nM

CCNC(=O)N1CCC(Nc2ncc3ccc(C4CC4)nc3n2)CC1 [Example II-42, 4-((7-cyclopropylpyrido[2,3-d]pyrimidin-2-yl)amino)-N-ethylpiperidine-1-carboxamide]
IC50 (JNK1α1/SAP1α, Active): > 1000 nM

Cn1c(=O)ccc2cnc(N[C@H]3CC[C@H](O)CC3)nc21 [Example II-29, Trans 2-((4-hydroxycyclohexyl)amino)-8-methylpyrido[2,3-d]pyrimidin-7(8H)-one]
IC50 [1]: < 200 nM | IC50 (JNK1α1/SAP1α, Active): < 200 nM

Cc1cc(NC(=O)c2cccc(-n3cc(NC(=O)Nc4ccccc4C)cn3)c2)ccn1 [Example I-51, N-(2-methylpyridin-4-yl)-3-(4-(3-(o-tolyl)ureido)-1H-pyrazol-1-yl)benzamide]
EC50 [1]: < 200 nM | EC50 (JNK2α2/SAPK1c, active): < 200 nM | EC50 (JNK1α1/SAP1α, Active): 200 to 1000 nM

O=C(NC1CCCC1)N[C@H]1CC[C@H](Nc2ncc3ccc(=O)[nH]c3n2)CC1 [Example II-28]
IC50 [1]: 200 to 1000 nM | IC50 (JNK1α1/SAP1α, Active): 200 to 1000 nM

Cc1ccc(CNC(=O)c2cccc(-n3cc(NC(=O)Nc4ccccc4Cl)cn3)c2)cn1 [Example I-9, 3-(4-(3-(2-chlorophenyl)ureido)-1H-pyrazol-1-yl)-N-((6-methylpyridin-3-yl)methyl)benzamide]
EC50 [1]: 200 to 1000 nM | EC50 (JNK2α2/SAPK1c, active): 200 to 1000 nM | EC50 (JNK1α1/SAP1α, Active): > 1000 nM

From US20160304466A1, “NOVEL COMPOUNDS AS JNK KINASE INHIBITORS” (THE SCRIPPS RESEARCH INSTITUTE, priority 2013, published 2016)
